Where no end group is shown, it is not given here.
Legend:
sera of APS patients = assay: ELISA binding of APS patient sera to biotinylated peptides; set-up: species or system human; conditions: APS patients (N = 43), sera 1:50
Experimental: ELISA streptavidin-coated plates were incubated with biotinylated A, B or C, control peptide D or cocktail of peptides A+B+C. Following blocking with 5% bovine sera, the patient sera were added at dilution of 1:50. The bound antibodies were detected by administration of anti-human IgG or IgM alkaline phosphatase and appropriate substrate.
(§1) Binding of sera from patients with primary APS or secondary to SLE to the studied peptides was performed by ELISA. 96-well ELISA plates were coated with streptavidin, blocked with gelatin, incubated with biotinylated peptides (A,B,C,D) and blocked with gelatin. Sera of patients with APS or SLE were added at dilution of 1:50 and the percent of binding was probed with anti-human IgM or IgG conjugated to alkaline phosphatase. Half plate was coated with streptavidin without addition of peptide (for non-specific binding).

[1] = tested on: affinity purified anti-β2GPI IgM and IgG from APS patients; assay: Competition ELISA: specificity of binding of patient anti-β2GPI IgM and IgG to peptides; set-up: species or system human; conditions: competition with specific peptide versus cocktail of the other peptides
Experimental: FIGS. 6A–6C show specificity of binding of affinity purified anti-β2GPI IgM and IgG antibodies from APS patients to the inhibitory monomer peptides A, B and C by ELISA, following preincubation of the tested affinity purified immuno-globulin with or without the peptide or the β2GPI molecule, in fluid phase. FIG. 6A: Affinity purified anti-β2GPI IgM and IgG that recognize peptide A were tested for binding to peptide A following preincubation of the purified antibodies with peptide A, cocktail of peptides B+C+D or β2GPI. Each point represents one patient. FIG. 6B: Affinity purified anti-β2GPI IgM and IgG that recognize peptide B were tested for binding to peptide B following preincubation with peptide B, cocktail of peptides A+C+D or β2GPI. Each point represents one patient. FIG. 6C: Affinity purified anti-β2GPI IgM and IgG that recognize peptide C were tested for binding to peptide C following preincubation with peptide C, cocktail of peptides A+B+D or β2GPI. Each point represents one patient.
The specificity of the recognition of the studied anti-β2GPI epitopes A, B, C by anti-β2GPI Abs from APS patients was confirmed by competition assays in which specificity of binding of anti-β2GPI IgM and IgG from patients with APS to the inhibitory peptides was examined. Anti-β2GPI IgG and IgM affinity purified from APS patients (affinity purification of the antibodies was carried out by incubation of cardiolipin lyposomes with patients' sera overnight at 4° C. with rotation following sedimentation of the complexes (30000 rpm), elution of the bound Abs by KI 1M, extraction from the lyposomes by chloroform, and separation of the total anti-β2GPI IgM, IgG Abs into the different isotypes employing either anti-human-IgM-Sepharose or anti-human-IgG-Sepharose (Pharmacia)) were preincubated with β2GPI (triangles), specific peptide monomer (circles) or a cocktail of the other peptides as monomers (squares), and tested for their binding to the specific biotinylated peptide-coated ELISA plates.

anti-β2GPI ILA-1 mAb = assay: Competition ELISA: inhibition of ILA-1 mAb binding to β2GPI; set-up: species or system human; conditions: 10 μM peptide concentration
Experimental: FIGS. 1A–1C are graphs showing inhibition of the anti-β2GPI ILA-1, ILA-3 and G-3 mAbs binding to β2GPI by competition assays using increasing concentrations of the inhibitory monomer peptides A, B and C, respectively, and of unrelated peptide D as control. The percent of inhibition was calculated as follows: % inhibition=O.D control−O.D with inhibitor/O.D control×100. Each point represents mean±SD of three different experiments.
(e) Inhibition of anti-β2GPI mAb binding to β2GPI by the inhibitory peptides. For competition ELISA tests, the anti-β2GPI mAbs (10 μg/ml) were preincubated (overnight at 4° C.) with varying concentrations of the peptides. The competition reaction was then transferred to β2GPI-coated γ-irradiated ELISA plates (Nunc), and the assay continued as described above. The percentage of inhibition was calculated as follows: % inhibition=O.D control −O.D with inhibitor/O.D control×100.
(2a) The specificity of interaction of the mAbs with the corresponding synthetic peptides A, B, C and control peptide D as monomers, was assessed by inhibition experiments as described in Materials and Methods, sections (e) and (f).

[2] = tested on: affinity purified anti-β2GPI Abs from APS patients; assay: Fractionation of affinity purified anti-β2GPI Abs on peptide columns; format: binding, human
sera of normal donors = assay: ELISA binding of normal donor sera to biotinylated peptides; set-up: species or system human; conditions: Normal donors (N = 100)
Experimental: as §1

[3] = tested on: sera of mice immunized with β2GPI; assay: ELISA binding of sera of β2GPI-immunized mice to peptides; set-up: species or system BALB/c mice; conditions: biotinylated peptide monomers on streptavidin plates, anti-mouse IgG
Experimental: Sera of immunized mice were screened for the presence of mouse antibodies to peptide A, B and C, by ELISA, with streptavidin-coated plates followed by incubation with biotinylated peptide A, B, and C. Blocked plates (3% gelatin) were exposed to different dilutions of the sera. The binding was probed by anti-mouse IgG alkaline phosphatase.
BALB/c mice were immunized (day 0) in the hindfootpads with 10 μg β2GPI in Complete Freund's Adjuvant (CFA), Three weeks after, the mice received a booster injection of β2GPI in PBS. Sera of the mice (anti-β2GPI) were used to screen peptides for the presence of B cell epitopes, as follows: 96-well ELISA plates were coated with streptavidin overnight at 4° C., followed by incubation with biotinylated peptide monomers A, B, C, or D, β2GPI or BSA in PBS (100 μM) for 2 hours at room temperature. The ELISA plates were blocked with 3% gelatin, and the mouse sera were added thereto at different dilutions. Binding was probed with goat anti-mouse IgG alkaline phosphatase.

sera of SLE patients = assay: ELISA binding of SLE patient sera to biotinylated peptides; set-up: species or system human; conditions: SLE patients (N = 72), sera 1:50
Experimental: as §1

| Sequence | Percent of sera recognizing the peptide, IgG (sera of APS patients) [%] | Percent of sera recognizing the peptide, IgM (sera of APS patients) [%] | specificity of recognition of the peptide by anti-β2GPI IgM and IgG from APS patients [1] | inhibition of ILA-1 mAb binding to β2GPI (anti-β2GPI ILA-1 mAb) [%] | Fraction of anti-β2GPI Abs (in percentage) recognizing the peptide ([2]; APS patient no. 1) [percentage] | Fraction of anti-β2GPI Abs (in percentage) recognizing the peptide ([2]; APS patient no. 2) [percentage] | Fraction of anti-β2GPI Abs (in percentage) recognizing the peptide ([2]; APS patient no. 3) [percentage] | Fraction of anti-β2GPI Abs (in percentage) recognizing the peptide ([2]; APS patient no. 4) [percentage] | Fraction of anti-β2GPI Abs (in percentage) recognizing the peptide ([2]; APS patient no. 5) [percentage] | Fraction of anti-β2GPI Abs (in percentage) recognizing the peptide ([2]; APS patient no. 6) [percentage] | Fraction of anti-β2GPI Abs (in percentage) recognizing the peptide ([2]; APS patient no. 7) [percentage] | Fraction of anti-β2GPI Abs (in percentage) recognizing the peptide ([2]; APS patient no. 8) [percentage] | Fraction of anti-β2GPI Abs (in percentage) recognizing the peptide ([2]; APS patient no. 9) [percentage] | Fraction of anti-β2GPI Abs (in percentage) recognizing the peptide ([2]; APS patient no. 10) [percentage] | Percent of sera recognizing the peptide, IgG (sera of normal donors) [%] | Percent of sera recognizing the peptide, IgM (sera of normal donors) [%] | reaction with antibodies from mice immunized with β2GPI [3] | Percent of sera recognizing the peptide, IgG (sera of SLE patients) [%] | Percent of sera recognizing the peptide, IgM (sera of SLE patients) [%] | Percent of sera recognizing the peptide, IgM (sera of APS patients; listed as peptide A) [%] |
| --- | --- | --- | --- | --- | --- | --- | --- | --- | --- | --- | --- | --- | --- | --- | --- | --- | --- | --- | --- | --- |
| CATLRVYKGG [Peptide C] | 16.3 | 27.9 | recognized specifically | 11 | 0.4 | 3 | 39 | 22 | 1.8 | 23 | 5 | 4.2 | 0.5 | 16.4 | 1 | 0 | reacted specifically | 2.8 | 14 | – |
| KDKATFGTHDG [Peptide B] | 20.9 | 25.6 | bind specifically | 10 | 37 | 15 | 0.5 | 43 | 29 | 14 | 18 | 33 | 1.3 | 7.9 | 0 | 1 | reacted specifically | 11 | 12.5 | – |
| NTLKTPRVGG [Peptide A] | 7 | 20.9 | recognized specifically | 97 | 23 | 0.7 | 1.4 | 29 | 0.9 | 29 | 37 | 2.8 | 12 | 0.6 | 0 | 2 | reacted specifically | 5.5 | 11 | 21 |

Source: patent publication US7053178B2, “Synthetic peptides and kits for diagnosis of anti-phospholipid syndrome” (Yeda Research Development Co., LTD, priority 1998, dated 2006)
